Patent publication US11434237B2, “Selective ligands for tau aggregates” (KARIN & STEN MORTSTEDT CBD SOLUTIONS AB, priority 2017, dated 2022)

How the values were obtained:
Aβ and tau deposits = assay: Co-staining of AD brain sections with q-FTAA-CN and Example Compound 3a; type: binding, human; settings: simultaneous staining, 100 nM q-FTAA-CN and 100 nM Example Compound 3a
Method: Frozen brain sections (20 μm) were fixed in 96% EtOH, rehydrated in 50% EtOH and de-ionized water and then incubated in phosphate buffered saline (PBS, 10 mM phosphate, 140 mM NaCl, 2.7 mM KCl, pH 7.4) for 10 min. Solutions containing 100 nM PBB3 and 100 nM Example Compound 3b or 100 nM q-FTAA-CN and 100 nM Example Compound 3a in PBS were added to the sections. After 30 min, the sections were washed with PBS and mounted with Dako fluorescent mounting medium (Dako Cytomation, Glostrup, Denmark). The mounting medium was allowed to solidify over night before collecting emission spectra of the compounds bound to misfolded A ? and tau using an inverted LSM 780 confocal microscope (Carl Zeiss, Oberkochen, Germany) with excitation wavelengths at 405 nm (PBB3 and q-FTAA-CN) and 561 nm (Example Compound 3a and Example Compound 3b).

Aβ aggregates = target: T1, Aβ aggregates (Homo sapiens, UniProt P05067); assay: Compound and antibody 4G8 double staining of AD brain tissue sections; type: binding; settings: for Overlap between Fluorescence from tested compound and fluorescence from 4G8 observed / Fluorescence from tested compound observed: 100 nM compound, human AD brain tissue sections; for Overlap between Fluorescence from tested compound and fluorescence from 4G8 observed: Aβ antibody 4G8; for Fluorescence from tested compound observed: double staining with Aβ antibody 4G8; for Fluorescence from 4G8 observed: signal of Aβ antibody 4G8 in the section stained with 100 nM of the compound
T1 construct: compound and antibody double staining of Aβ or tau aggregates; from tissue; host or cells: human AD brain tissue sections (20 μm)
T1 sequence (P05067 672-713 limits assumed): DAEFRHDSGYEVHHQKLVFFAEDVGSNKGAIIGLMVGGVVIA
Method: (§1) To achieve compound and antibody double staining of Aβ or tau aggregates, tissue sections (20 μm) from human AD brain were fixed in 70% EtOH at 4° C. for 3 min, rehydrated in distilled water and then incubated in PBS for 30 min. Sections were blocked and permeabilized in PBS with 5% normal goat serum and 0.1% triton X-100 (blocking buffer) for 1 h at room temperature (RT). Antibody 4G8 (Biolegend, San Diego, Calif., USA) reactive to Aβ, and AT100 (Thermo Fisher Scientific, Waltham, Mass., USA) directed against tau phosphorylated at […] (3) were diluted 1:500 and 1:1000, respectively, in blocking buffer and added to the sections. After 16 h incubation at 4° C. unbound antibody was removed by washing in PBS with 0.1% triton X-100 (PBS-T) 3×10 min. To visualize antibody binding to Aβ or tau aggregates sections were incubated with goat anti-mouse secondary antibody labelled with Alexa 647 (Thermo Fisher Scientific). The antibody was diluted 1:200 in blocking buffer and after 1 h incubation at RT sections were washed in PBS 3×10 min. Example Compound 3a, Example Compound 3b, Example Compound 3c, Example Compound 3d, Example Compound 3e, Example Compound 3f, Example Compound 3g, Example Compound 3h, Example Compound 3i, Example Compound 3j, Example Compound 3k, Example Compound 3m, Example Compound 3n, Example Compound 3o, Example Compound 3p, Example Compound 3q, Example Compound 3r, Example Compound 3s, Example Compound 3t, Example Compound 3u, Example Compound 8a, Comparative Example 1, Comparative Example 2, Comparative Example 3 and Comparative Example 4 were dissolved in DMSO to a concentration of 1.5 mM and then further diluted in PBS to a final concentration of 100 nM compound prior to staining. The tissue sections were then stained for 30 min at RT with these freshly prepared solutions containing 100 nM of the respective compound in PBS. After three washes in PBS the sections were mounted in Dako mounting medium for fluorescence (Dako Cytomation, Glostrup, Denmark) and allowed to dry overnight before analysis. Fluorescence images were collected using an inverted LSM 780 confocal microscope (Carl Zeiss, Oberkochen, Germany) with the following excitation/emission wavelengths optimized for each compound: 458/484-600 (Comparative Example 1, Comparative Example 3), 561/569-648 (Example Compound 3a, Example Compound 3b, Example Compound 3c, Example Compound 3d, Example Compound 3e, Example Compound 3f, Example Compound 3g, Example Compound 3h, Example Compound 3i, Example Compound 3j, Example Compound 3k, Example Compound 3m, Example Compound 3n, Example Compound 3o, Example Compound 3p, Example Compound 3q, Example Compound 3r, Example Compound 3s, Example Compound 3t, Example Compound 3u, Example Compound 8a, Comparative Example 2 and Comparative Example 4) and 633/638-755 (Alexa 647). To visualize autofluorescent lipofuscin excitation/emission wavelengths 405/410-480 or 405/410-514 were used.

tau aggregates [1] = target: T2, tau aggregates (Homo sapiens, UniProt P10636); assay: Compound and antibody AT100 double staining of AD brain tissue sections; type: binding; settings: for Labelling of immune-positive NFTs and dystrophic neurites / Fluorescence from tested compound observed / Overlap between Fluorescence from tested compound and fluorescence from AT-100 observed: 100 nM compound; for Labelling of immune-positive NFTs and dystrophic neurites: AT100 co-staining, AD brain sections; for Fluorescence from tested compound observed / Overlap between Fluorescence from tested compound and fluorescence from AT-100 observed: human AD brain tissue sections; for Fluorescence from tested compound observed: double staining with tau antibody AT-100; for Overlap between Fluorescence from tested compound and fluorescence from AT-100 observed: tau antibody AT-100; for Fluorescence from AT-100 observed: signal of tau antibody AT-100 in the section stained with 100 nM of the compound
T2 construct: tissue sections (20 μm) from human AD brain; from tissue; host or cells: human AD brain tissue sections (20 μm)
T2 sequence (P10636 1-441 isoform P10636-8): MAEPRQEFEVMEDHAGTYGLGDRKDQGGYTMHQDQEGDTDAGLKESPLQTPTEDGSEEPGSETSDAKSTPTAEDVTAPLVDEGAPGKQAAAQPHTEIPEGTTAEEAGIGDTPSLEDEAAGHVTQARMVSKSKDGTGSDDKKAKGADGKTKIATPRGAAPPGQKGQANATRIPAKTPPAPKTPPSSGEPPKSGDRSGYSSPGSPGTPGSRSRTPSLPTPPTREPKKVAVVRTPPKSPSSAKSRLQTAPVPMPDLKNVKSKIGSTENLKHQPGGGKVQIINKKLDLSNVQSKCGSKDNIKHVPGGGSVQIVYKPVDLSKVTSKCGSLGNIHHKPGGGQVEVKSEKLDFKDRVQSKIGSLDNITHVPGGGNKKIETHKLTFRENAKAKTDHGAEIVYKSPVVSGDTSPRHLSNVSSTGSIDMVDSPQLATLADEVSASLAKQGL
Method: as §1

tau aggregates [2] = target: T2, tau aggregates; assay: Example Compound 3b staining of AD brain sections pre-incubated with q-FTAA-CN; type: binding; settings: FIG. 7H, pre-incubated with 1 μM q-FTAA-CN, then 10 nM Example Compound 3b
Method: Frozen brain sections (20 μm) were fixed in 96% EtOH, rehydrated in 50% EtOH and de-ionized water and then incubated in phosphate buffered saline (PBS, 10 mM phosphate, 140 mM NaCl, 2.7 mM KCl, pH 7.4) for 10 min. The sections were stained with solutions containing 1 ? M PBB3 or 1 ? M q-FTAA-CN in PBS for 30 min and after rinsing three times with PBS, the sections was stained with a solution containing 10 nM Example Compound 3b. After 30 min, the sections were washed with PBS and mounted with Dako fluorescent mounting medium (Dako Cytomation, Glostrup, Denmark). The mounting medium was allowed to solidify over night before collecting emission spectra of the compounds bound to misfolded Aβ and tau using an inverted LSM 780 confocal microscope (Carl Zeiss, Oberkochen, Germany) with excitation wavelengths at 405 nm (PBB3 and q-FTAA-CN) and 561 nm (Example Compound 3b).

Row | SMILES | Deposits labelled (Aβ and tau deposits) | Fluorescence from Example 3a observed (Aβ and tau deposits; FIG. 7A-C) | Overlap between Fluorescence from Example 3a and fluorescence from q-FTAA-CN (Aβ and tau deposits; FIG. 7A-C) | Overlap between Fluorescence from tested compound and fluorescence from 4G8 observed (Aβ aggregates) | Fluorescence from tested compound observed (Aβ aggregates) | Fluorescence from 4G8 observed (Aβ aggregates) | Labelling of immune-positive NFTs and dystrophic neurites (tau aggregates [1]) | Fluorescence from tested compound observed (tau aggregates [1]) | Overlap between Fluorescence from tested compound and fluorescence from AT-100 observed (tau aggregates [1]) | Fluorescence from AT-100 observed (tau aggregates [1]) | Fluorescence from q-FTAA-CN observed (Aβ and tau deposits; FIG. 7A-C) | Fluorescence from q-FTAA-CN observed (tau aggregates [2]) | Fluorescence from q-FTAA-CN observed (tau aggregates [2]; listed as q-FTAA)
1 | CC[n+]1c(/C=C/c2ccc(-c3ccc(C(=O)OC)s3)s2)sc2ccccc21 [Example Compound 3a] | tau aggregates (arrows) displayed Example Compound 3a fluorescence | yes | no | no correlation and no | yes | yes | labelled both immune-positive NFTs and dystrophic neurites | yes | yes | yes | – | – | –
2 | CC[n+]1c(/C=C/c2ccc(-c3cccc4nsnc34)s2)sc2ccccc21.[I-] [Example Compound 3o] | – | – | – | no correlation and no | yes | yes | labelled both immune-positive NFTs and dystrophic neurites | yes | yes | yes | – | – | –
3 | CC[n+]1c(/C=C/c2ccc(-c3ccc(C(=O)OC)[se]3)s2)[se]c2ccc(OC)cc21.[I-] [Example Compound 3p] | – | – | – | no correlation and no | yes | yes | labelled both immune-positive NFTs and dystrophic neurites | yes | yes | yes | – | – | –
4 | CC[n+]1c(/C=C/c2ccc(-c3ccc[se]3)s2)[se]c2ccc(OC)cc21.[I-] [Example Compound 3q] | – | – | – | no correlation and no | yes | yes | labelled both immune-positive NFTs and dystrophic neurites | yes | yes | yes | – | – | –
5 | CC[n+]1c(/C=C/c2ccc(-c3ccc(C(=O)OC)[se]3)s2)sc2ccccc21.[I-] [Example Compound 3r] | – | – | – | no correlation and no | yes | yes | labelled both immune-positive NFTs and dystrophic neurites | yes | yes | yes | – | – | –
6 | CC[n+]1c(/C=C/c2ccc(-c3ccc4ncsc4c3)s2)sc2ccccc21.[I-] [Example Compound 3s] | – | – | – | no correlation and no | yes | yes | labelled both immune-positive NFTs and dystrophic neurites | yes | yes | yes | – | – | –
7 | CC[n+]1c(/C=C/c2ccc(-c3ccc(C#N)s3)s2)sc2ccccc21.[I-] [Example Compound 3t] | – | – | – | no correlation and no | yes | yes | labelled both immune-positive NFTs and dystrophic neurites | yes | yes | yes | – | – | –
8 | CC[n+]1c(/C=C/c2ccc(-c3ccc(C(=O)OC)s3)s2)sc2ccc(O)cc21.[I-] [Example Compound 3u] | – | – | – | no correlation and no | yes | yes | labelled both immune-positive NFTs and dystrophic neurites | yes | yes | yes | – | – | –
9 | N#Cc1cc(CC(=O)O)c(-c2ccc(-c3sc(-c4ccc(C(=O)O)s4)cc3CC(=O)O)s2)s1 [q-FTAA-CN, reference compound] | selectively labelled Aβ deposits | – | – | – | – | – | – | – | – | – | yes | observed from both Aβ deposits (small arrow-heads) and tau aggregates and yes | labelled both Aβ deposits and NFTs
